Reference: PubChem BioAssay (NCI)
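A five-concentration, 48-hour dose response in 96-well plates underlies each endpoint, interpolated linearly between surrounding concentrations. TGI marks complete inhibition of growth.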

Legend:
Experiment in all cases: growth of human tumour cells (NCI), 48 h
[1] = tested on: MALME-3M melanoma
[2] = tested on: HL-60(TB) leukemia
[3] = tested on: NCI-H460 lung
[4] = tested on: UACC-257 melanoma
[5] = tested on: HCT-116 colon
[6] = tested on: HCT-15 colon
[7] = tested on: SK-MEL-2 melanoma
[8] = tested on: 786-0 renal
[9] = tested on: HOP-62 NSCLC
[10] = tested on: KM20L2 colon
[11] = tested on: SK-MEL-5 melanoma
[12] = tested on: SK-MEL-28 melanoma
[13] = tested on: HT29 colon
[14] = tested on: OVCAR-4 ovarian
[15] = tested on: M19-MEL melanoma
[16] = tested on: NCI-H23 lung
[17] = tested on: K-562 leukemia
[18] = tested on: CAKI-1 renal
[19] = tested on: UO-31 renal
[20] = tested on: HOP-92 NSCLC
[21] = tested on: TK-10 renal
[22] = tested on: A549 NSCLC
[23] = tested on: SR leukemia
[24] = tested on: OVCAR-8 ovarian
[25] = tested on: LXFL 529 NSCLC
[26] = tested on: U251 CNS
[27] = tested on: LOX IMVI melanoma
[28] = tested on: OVCAR-3 ovarian
[29] = tested on: EKVX NSCLC
[30] = tested on: SK-OV-3 ovarian
[31] = tested on: RPMI-8226 leukemia
[32] = tested on: XF 498 CNS
[33] = tested on: CCRF-CEM leukemia
[34] = tested on: SF-539 CNS
[35] = tested on: NCI-H522 lung
[36] = tested on: SN12C renal
[37] = tested on: HCC-2998 colon
[38] = tested on: SF-295 CNS
[39] = tested on: COLO 205 colon
[40] = tested on: SNB-78 CNS
[41] = tested on: SW-620 colon
[42] = tested on: SNB-19 CNS
[43] = tested on: SF-268 CNS
[44] = tested on: OVCAR-5 ovarian
[45] = tested on: NCI-H226 lung
[46] = tested on: MOLT-4 leukemia
[47] = tested on: IGROV1 ovarian
[48] = tested on: M14 melanoma
[49] = tested on: ACHN renal
[50] = tested on: A498 renal
[51] = tested on: UACC-62 melanoma
[52] = tested on: KM12 colon
[53] = tested on: DLD-1 colon
[54] = tested on: RXF-631 renal
[55] = tested on: HOP-18 NSCLC
[56] = tested on: DMS 273 small cell lung
[57] = tested on: RXF 393 renal
[58] = tested on: DMS 114 small cell lung
[59] = tested on: SNB-75 CNS

## CC(=O)c1ccc(NC(=O)C(=O)C(C#N)CC(C)(C)C=O)cc1 (stereo not given)
[1]
  TGI: > 100 µM
[2]
  TGI: > 100 µM
[3]
  TGI: > 100 µM
[4]
  TGI: > 100 µM
[5]
  TGI: > 100 µM
[6]
  TGI: > 100 µM
[7]
  TGI: > 100 µM
[8]
  TGI: > 100 µM
[9]
  TGI: > 100 µM
[10]
  TGI: > 100 µM
[11]
  TGI: > 100 µM
[12]
  TGI: > 100 µM
[13]
  TGI: > 100 µM
[14]
  TGI: > 100 µM
[15]
  TGI: > 100 µM
[16]
  TGI: > 100 µM
[17]
  TGI: > 100 µM
[18]
  TGI: > 100 µM
[19]
  TGI: > 100 µM
[20]
  TGI: > 100 µM
[21]
  TGI: > 100 µM
[22]
  TGI: > 100 µM
[23]
  TGI: > 100 µM
[24]
  TGI: > 100 µM
[25]
  TGI: > 100 µM
[26]
  TGI: > 100 µM
[27]
  TGI: > 100 µM
[28]
  TGI: > 100 µM
[29]
  TGI: > 100 µM
[30]
  TGI: > 100 µM
[31]
  TGI: > 100 µM
[32]
  TGI: > 100 µM
[33]
  TGI: > 100 µM
[34]
  TGI: > 100 µM
[35]
  TGI: > 100 µM
[36]
  TGI: > 100 µM
[37]
  TGI: > 100 µM
[38]
  TGI: > 100 µM
[39]
  TGI: > 100 µM
[40]
  TGI: > 100 µM
[41]
  TGI: > 100 µM
[42]
  TGI: > 100 µM
[43]
  TGI: > 100 µM
[44]
  TGI: > 100 µM
[45]
  TGI: > 100 µM
[46]
  TGI: > 100 µM
[47]
  TGI: > 100 µM
[48]
  TGI: > 100 µM
[49]
  TGI: > 100 µM
[50]
  TGI: > 100 µM
[51]
  TGI: > 100 µM
[52]
  TGI: > 100 µM

## O=c1cccc(-c2cccc(=O)[nH]2)[nH]1
[1]
  TGI: > 100 µM
[2]
  TGI: > 100 µM
[3]
  TGI: > 100 µM
[4]
  TGI: > 100 µM
[5]
  TGI: > 100 µM
[53]
  TGI: > 100 µM
[6]
  TGI: > 100 µM
[54]
  TGI: > 100 µM
[8]
  TGI: > 100 µM
[11]
  TGI: > 100 µM
[55]
  TGI: > 100 µM
[56]
  TGI: > 100 µM
[12]
  TGI: > 100 µM
[13]
  TGI: > 100 µM
[57]
  TGI: > 100 µM
[15]
  TGI: > 100 µM
[58]
  TGI: > 100 µM
[16]
  TGI: > 100 µM
[17]
  TGI: > 100 µM
[59]
  TGI: > 100 µM
[18]
  TGI: > 100 µM
[19]
  TGI: > 100 µM
[20]
  TGI: 96.5 µM
[21]
  TGI: > 100 µM
[22]
  TGI: > 100 µM
[24]
  TGI: > 100 µM
[25]
  TGI: > 100 µM
[26]
  TGI: > 100 µM
[27]
  TGI: > 100 µM
[28]
  TGI: > 100 µM
[29]
  TGI: > 100 µM
[30]
  TGI: > 100 µM
[31]
  TGI: > 100 µM
[33]
  TGI: > 100 µM
[34]
  TGI: > 100 µM
[36]
  TGI: > 100 µM
[37]
  TGI: > 100 µM
[38]
  TGI: > 100 µM
[39]
  TGI: > 100 µM
[40]
  TGI: > 100 µM
[41]
  TGI: > 100 µM
[45]
  TGI: > 100 µM
[46]
  TGI: > 100 µM
[47]
  TGI: > 100 µM
[48]
  TGI: > 100 µM
[49]
  TGI: > 100 µM
[51]
  TGI: > 100 µM
[52]
  TGI: > 100 µM
